Each compound was assayed on Pseudomonas aeruginosa PAO1 MB9798 (efflux+, IMP-1). Conditions: ratio MITC95 PA 9798/MITC95 PA 9799; imipenem at 2 μg/mL.
Source text: The strain background was Pseudomonas aeruginosa PAO1.
The strain set was then used as a pair to determine the effect of metallo-β-lactamase inhibitors of Formula I on the MIC of imipenem and/or ceftazidime. A fixed concentration of antibiotic was included in standard microbroth MIC tests, usually at the CLSI (Clinical and Laboratory Standards Institute) breakpoint concentration. A fixed amount of a class A/C beta-lactamase inhibitor was also included to inhibit the resident Pseudomonas AmpC enzyme. A serial titration of the metallo-β-lactamase inhibitor was included and the concentration of metallo-β-lactamase inhibitor which restores susceptibility of the strain to the included antibiotic was recorded. That concentration of metallo-β-lactamase inhibitor was then compared between the two strains to determine the fold difference between the efflux + (MB9798) and efflux − (MB9799) strains. This was taken as an indication of the extent to which the MBLi is subject to efflux.

Row | SMILES | Efflux ratio
1 | Nc1nc2c(-c3ccc(S(=O)(=O)NC4CNC[C@H]4N)c(S(N)(=O)=O)c3-c3nn[nH]n3)cccc2[nH]1 (stereo in doubt) [Example 322, 4-(2-Amino-1H-benzo[d]imidazol-4-yl)-N1-((3S,4R)-4-aminopyrrolidin-3-yl)-3-(2H-tetrazol-5-yl)benzene-1,2-disulfonamide] | 0.83
2 | Nc1nc2cccc(-c3ccc(S(N)(=O)=O)c(S(N)(=O)=O)c3-c3nn[nH]n3)c2[nH]1 [Example 1, 4-(2-amino-3H-benzo[d]imidazol-4-yl)-3-(2H-tetrazol-5-yl)benzene-1,2-disulfonamide] | 0.65
3 | Nc1ccc2cccc(-c3ccc(S(N)(=O)=O)c(S(N)(=O)=O)c3-c3nn[nH]n3)c2n1 [Example 2, 4-(2-aminoquinolin-8-yl)-3-(2H-tetrazol-5-yl)benzene-1,2-disulfonamide] | 1.00
4 | NS(=O)(=O)c1ccc(-c2cccc3cn[nH]c23)c(-c2nn[nH]n2)c1S(N)(=O)=O [Example 3, 4-(1H-indazol-7-yl)-3-(2H-tetrazol-5-yl)benzene-1,2-disulfonamide] | 2.00
5 | Nc1nc2c(-c3ccc(S(N)(=O)=O)c(S(N)(=O)=O)c3-c3nn[nH]n3)cccc2o1 [Example 4, 4-(2-aminobenzo[d]oxazol-4-yl)-3-(2H-tetrazol-5-yl)benzene-1,2-disulfonamide] | 1.00
6 | Cn1c(N)nc2c(-c3ccc(S(N)(=O)=O)c(S(N)(=O)=O)c3-c3nn[nH]n3)cccc21 [Example 5, 4-(2-amino-1-methyl-1H-benzo[d]imidazol-4-yl)-3-(2H-tetrazol-5-yl)benzene-1,2-disulfonamide] | 2.00
7 | Cc1ccc(-c2ccc(S(N)(=O)=O)c(S(N)(=O)=O)c2-c2nn[nH]n2)c2nc(N)sc12 [Example 6, 4-(2-amino-7-methylbenzo[d]thiazol-4-yl)-3-(2H-tetrazol-5-yl)benzene-1,2-disulfonamide] | 1.00
8 | NS(=O)(=O)c1ccc(-c2cccc3[nH]c(C(=O)O)nc23)c(-c2nn[nH]n2)c1S(N)(=O)=O [Example 8, 4-(3,4-disulfamoyl-2-(2H-tetrazol-5-yl)phenyl)-1H-benzo[d]imidazole-2-carboxylic acid] | 1.00
9 | NCCNS(=O)(=O)c1ccc(-c2cccc3cn[nH]c23)c(-c2nn[nH]n2)c1S(N)(=O)=O [Example 9, N^1-(2-aminoethyl)-4-(1H-indazol-7-yl)-3-(2H-tetrazol-5-yl)benzene-1,2-disulfonamide] | 0.50
10 | Cl.Cn1c(N)nc2c(-c3ccc(S(=O)(=O)NCCN)c(S(N)(=O)=O)c3-c3nn[nH]n3)cccc21 [Example 10, 4-(2-amino-1-methyl-1H-benzo[d]imidazol-4-yl)-N1-(2-aminoethyl)-3-(2H-tetrazol-5-yl)benzene-1,2-disulfonamide hydrochloride] | 1.00
11 | NCCNS(=O)(=O)c1ccc(-c2cccc3oc(N)nc23)c(-c2nn[nH]n2)c1S(N)(=O)=O [Example 11, 4-(2-aminobenzo[d]oxazol-4-yl)-N^1-(2-aminoethyl)-3-(2H-tetrazol-5-yl)benzene-1,2-disulfonamide] | 1.00
12 | NCCNS(=O)(=O)c1ccc(-c2cccc3[nH]c(N)nc23)c(-c2nn[nH]n2)c1S(N)(=O)=O [Example 12, 4-(2-amino-1H-benzo[d]imidazol-4-yl)-N^1-(2-aminoethyl)-3-(2H-tetrazol-5-yl)benzene-1,2-disulfonamide] | 0.75
13 | NCCNS(=O)(=O)c1ccc(-c2cccc3oc(C(=O)O)nc23)c(-c2nn[nH]n2)c1S(N)(=O)=O [Example 13, 4-(4-(N-(2-aminoethyl)sulfamoyl)-3-sulfamoyl-2-(2H-tetrazol-5-yl)phenyl)benzo oxazole-2-carboxylic acid] | 2.00
14 | Nc1nc2c(-c3ccc(S(=O)(=O)NC4CCS(=O)(=O)CC4)c(S(N)(=O)=O)c3-c3nnn[nH]3)cccc2s1 [Example 14, 4-(2-amino-1,3-benzothiazol-4-yl)-N1-(1,1-dioxidotetrahydro-2H-thiopyran-4-yl)-3-(1H-tetrazol-5-yl)benzene-1,2-disulfonamide] | 1.00
15 | Nc1nc2c(-c3ccc(S(=O)(=O)NCCN4CCNC(=O)C4)c(S(N)(=O)=O)c3-c3nnn[nH]3)cccc2s1 [Example 15, 4-(2-amino-1,3-benzothiazol-4-yl)-N1-[2-(3-oxopiperazin-1-yl)ethyl]-3-(1H-tetrazol-5-yl)benzene-1,2-disulfonamide] | 1.00
16 | CN(C)CC(F)(F)CNS(=O)(=O)c1ccc(-c2cccc3sc(N)nc23)c(-c2nnn[nH]2)c1S(N)(=O)=O [Example 16, 4-(2-amino-1,3-benzothiazol-4-yl)-N1-[3-(dimethylamino)-2,2-difluoropropyl]-3-(1H-tetrazol-5-yl)benzene-1,2-disulfonamide] | 16.00

Row | SMILES | Efflux ratio
17 | CN1CCOC(CNS(=O)(=O)c2ccc(-c3cccc4sc(N)nc34)c(-c3nnn[nH]3)c2S(N)(=O)=O)C1 (stereo not shown) [Example 17, 4-(2-amino-1,3-benzothiazol-4-yl)-N1-[(4-methylmorpholin-2-yl)methyl]-3-(1H-tetrazol-5-yl)benzene-1,2-disulfonamide] | 2.00
18 | CN1CCCC(NS(=O)(=O)c2ccc(-c3cccc4sc(N)nc34)c(-c3nnn[nH]3)c2S(N)(=O)=O)C1 (stereo not shown) [Example 18, 4-(2-amino-1,3-benzothiazol-4-yl)-N1-(1-methylpiperidin-3-yl)-3-(1H-tetrazol-5-yl)benzene-1,2-disulfonamide] | 1.00
19 | Nc1nc2c(-c3ccc(S(=O)(=O)NCC4CCC(=O)N4)c(S(N)(=O)=O)c3-c3nnn[nH]3)cccc2s1 (stereo not shown) [Example 19, 4-(2-amino-1,3-benzothiazol-4-yl)-N1-[(5-oxopyrrolidin-2-yl)methyl]-3-(1H-tetrazol-5-yl)benzene-1,2-disulfonamide] | 1.00
20 | Cn1cnc(CNS(=O)(=O)c2ccc(-c3cccc4sc(N)nc34)c(-c3nnn[nH]3)c2S(N)(=O)=O)n1 [Example 20, 4-(2-amino-1,3-benzothiazol-4-yl)-N^1-[(1-methyl-1H-1,2,4-triazol-3-yl)methyl]-3-(1H-tetrazol-5-yl)benzene-1,2-disulfonamide] | 1.00
21 | CN(C)CCNS(=O)(=O)c1ccc(-c2cccc3sc(N)nc23)c(-c2nnn[nH]2)c1S(N)(=O)=O [Example 22, 4-(2-amino-1,3-benzothiazol-4-yl)-N^1-[2-(dimethylamino)ethyl]-3-(1H-tetrazol-5-yl)benzene-1,2-disulfonamide] | 1.00
22 | CNC(=O)CNS(=O)(=O)c1ccc(-c2cccc3sc(N)nc23)c(-c2nnn[nH]2)c1S(N)(=O)=O [Example 23, N^2-{[4-(2-amino-1,3-benzothiazol-4-yl)-2-sulfamoyl-3-(1H-tetrazol-5-yl)phenyl]sulfonyl}-N-methylglycinamide] | 1.00
23 | COCCNS(=O)(=O)c1ccc(-c2cccc3sc(N)nc23)c(-c2nnn[nH]2)c1S(N)(=O)=O [Example 24, 4-(2-amino-1,3-benzothiazol-4-yl)-N^1-(2-methoxyethyl)-3-(1H-tetrazol-5-yl)benzene-1,2-disulfonamide] | 4.00
24 | Nc1nc2c(-c3ccc(S(=O)(=O)N4CCC(CO)CC4)c(S(N)(=O)=O)c3-c3nnn[nH]3)cccc2s1 [Example 25, 3-(2-amino-1,3-benzothiazol-4-yl)-6-{[4-(hydroxymethyl)piperidin-1-yl]sulfonyl}-2-(1H-tetrazol-5-yl)benzenesulfonamide] | 16.00
25 | CN(C)C1CCN(S(=O)(=O)c2ccc(-c3cccc4sc(N)nc34)c(-c3nnn[nH]3)c2S(N)(=O)=O)CC1 [Example 26, 3-(2-amino-1,3-benzothiazol-4-yl)-6-{[4-(dimethylamino)piperidin-1-yl]sulfonyl}-2-(1H-tetrazol-5-yl)benzenesulfonamide] | 2.00
26 | CN1CCN(S(=O)(=O)c2ccc(-c3cccc4sc(N)nc34)c(-c3nnn[nH]3)c2S(N)(=O)=O)CC1 [Example 27, 3-(2-amino-1,3-benzothiazol-4-yl)-6-[(4-methylpiperazin-1-yl)sulfonyl]-2-(1H-tetrazol-5-yl)benzenesulfonamide] | 2.00
27 | Nc1nc2c(-c3ccc(S(=O)(=O)N4CCNC(=O)C4)c(S(N)(=O)=O)c3-c3nnn[nH]3)cccc2s1 [Example 28, 3-(2-amino-1,3-benzothiazol-4-yl)-6-[(3-oxopiperazin-1-yl)sulfonyl]-2-(1H-tetrazol-5-yl)benzenesulfonamide] | 4.00
28 | Nc1nc2c(-c3ccc(S(=O)(=O)N4CCOCC4)c(S(N)(=O)=O)c3-c3nnn[nH]3)cccc2s1 [Example 29, 3-(2-amino-1,3-benzothiazol-4-yl)-6-(morpholin-4-ylsulfonyl)-2-(1H-tetrazol-5-yl)benzenesulfonamide] | 16.00
29 | Nc1nc2c(-c3ccc(S(=O)(=O)NCCC4CNC4)c(S(N)(=O)=O)c3-c3nnn[nH]3)cccc2s1 [Example 30, 4-(2-amino-1,3-benzothiazol-4-yl)-N1-(2-azetidin-3-ylethyl)-3-(1H-tetrazol-5-yl)benzene-1,2-disulfonamide] | 1.00
30 | CNCCNS(=O)(=O)c1ccc(-c2cccc3sc(N)nc23)c(-c2nnn[nH]2)c1S(N)(=O)=O [Example 31, 4-(2-amino-1,3-benzothiazol-4-yl)-N^1-[2-(methylamino)ethyl]-3-(1H-tetrazol-5-yl)benzene-1,2-disulfonamide] | 1.50
31 | Nc1nc2c(-c3ccc(S(=O)(=O)NC4CCNCC4)c(S(N)(=O)=O)c3-c3nnn[nH]3)cccc2s1 [Example 32, 4-(2-amino-1,3-benzothiazol-4-yl)-N1-piperidin-4-yl-3-(1H-tetrazol-5-yl)benzene-1,2-disulfonamide] | 0.50

From patent US10544130B2, “Metallo-beta-lactamase inhibitors” (priority 2015, dated 2020)
